Common to all, as to type: physicochemical
Series [1] can be described thus: 13C T1 inversion recovery studies of choline and deuterated cholines at 11.8 T. To be noted: for Elongation factor, T1 of C1 / Elongation factor, T1 of C2: relative to choline Cl- (A). Here is the method: The data in Table 2 were obtained using a series of inversion recovery studies at 11.8 T which were carried out in order to determine the ^13C T1 relaxation times of a deuterated choline molecule and of a partially deuterated choline molecule [1,1,2,2-D4]-choline Cr. The T1 of the trimethyl amine position in the fully deuterated choline molecule was 28 sec, which represented an approximate 8 fold elongation factor compared to the native choline molecule in which the trimethyl amine positions are protonated. Inversion recovery studies were carried out on a 500 MHz scanner (Varian), equipped with a 5 mm double tuned ^13C/^1H probe. Carbon-13 signals were detected in these molecules at natural abundance. The number of transitions ranged between 300 to 400 per relaxation delay (r) with a total scanning time of 12 to 67 hours due to a relaxation delay of 130 sec. The data were fitted to the standard inversion recovery equation. The possible effect of concentration on T1 was investigated in a concentration range of 20 mM to […], no significant effect of concentration on T1 was found in this concentration range. Choline Cl^− and [1,1,2,2-D4]-Choline CU were obtained from Sigma-Aldrich (Israel). Choline-D13 Br^− (fully deuterated) was obtained from Cambridge Isotope Laboratories (MA, USA).

A short description of series [2]: 13C T1 inversion recovery studies of L-DOPA, dopamine and partially deuterated dopamine. To be noted: for T1 of C1 / T1 of C2 / T1 of C3: 13C at natural abundance, inversion recovery, 500 MHz scanner; for Elongation factor, T1 of C1 / Elongation factor, T1 of C2 / Elongation factor, T1 of C3: relative to dopamine HCl (A). Here is the method:
Inversion recovery studies were carried out on protonated L-DOPA and dopamine and partially deuterated dopamine a in order to determine the ^13C T1 relaxation times in these molecules. The inversion recovery studies were carried out on a 500 MHz scanner (Varian), equipped with a 5 mm double tuned ^13C/^1H probe. Carbon-13 signals were detected in these molecules at natural abundance. The number of transitions ranged between 300 to 400 per relaxation delay (t) with a total scanning time of 12 to 48 hours. Dopamine HCl and L-DOPA were obtained from Sigma-Aldrich (Israel). [1,1,2,2-D4]-Dopamine HCl, and [D3-ring, 2,2-D2]-Dopamine were obtained from Cambridge Isotope Laboratories (MA, USA).

Series [3] can be described thus: T1 values of additional deuterated compounds.
Series [4] is described as follows: T1 of position 2 in [1,1,2,2-D4,2-13C]-choline at various magnetic field strengths and temperatures. As to conditions: for Liquid state T1 of position 2: DNP-enhanced liquid state sample, 14.1 T. As to the method: The T1 of position 2 in [1,1,2,2-D4,2-^13C]-choline was further investigated at various magnetic field strengths and temperatures. The liquid state T1 was measured on a DNP-enhanced liquid state sample at 14.1 T at approx. 37° C. (T1=48±2 sec) and at higher temperatures of between about 40 to about 50° C. (T1=56±4 sec).
In addition, thermal equilibrium T1 measurement was performed at 9.4 T at 37° C. (T1=41 sec). The low field T1 of [1,1,2,2-D4,2-^13C]-choline was estimated by placing the enhanced sample in the fringe field of an unshielded 14.1 T magnet (n=2). From this experiment it was concluded that the low field T1 is long (>40 s) and that the T1 of the deuterated methylene carbon in choline is less affected by field strength.

The mark [5] stands for this setting: 13C at natural abundance, inversion recovery, 11.8 T.

The structures appear in SMILES notation.

Turning to `[2H]C([2H])(O)C([2H])([2H])[N+](C)(C)C.[Cl-]` [[1,1,2,2-D4]-choline Cl^−], in series [1] (setting [5]), the “T1 of C1” value came to 29.1 s and the “T1 of C2” value came out at 34.9 s. In series [1] (11.8 T), the “Elongation factor, T1 of C1” value came out at 5.6 and the “Elongation factor, T1 of C2” value was 7.1.
For `N[C@@H](Cc1ccc(O)c(O)c1)C(=O)O` [L-DOPA (non deuterated), L-DOPA], in series [2], the “T1 of C1” value came to 2.3 s, the “T1 of C2” value is 2.3 s and the “T1 of C3” value was determined as 3.9 s.
In the case of `Cl.[2H]c1c([2H])c(C([2H])([2H])CN)c([2H])c(O)c1O` [[D3 ring,2,2-D2]-dopamine HCl], in series [2], the “T1 of C1” value was 1.0 s; the “T1 of C2” value is 4.4 s; the “T1 of C3” value came out at 5.4 s; the “Elongation factor, T1 of C1” value was 1.0. For the same compound, in series [2], the “Elongation factor, T1 of C2” value was 4.4 and the “Elongation factor, T1 of C3” value is 0.8.
Consider `Cl.NCCc1ccc(O)c(O)c1` [dopamine HCl], for which, in series [2], the “T1 of C1” value came to 1.1 s, the “T1 of C2” value turned out to be 1.0 s and the “T1 of C3” value worked out at 6.4 s.
As to `[2H]C([2H])(O)C([2H])([2H])[N+](C([2H])([2H])[2H])(C([2H])([2H])[2H])C([2H])([2H])[2H].[Br-]` [[D13]-choline Br^−], in series [1] (setting [5]), the “T1 of C1” value is 32.0 s, the “T1 of C2” value is 32.9 s and the “T1 of the trimethyl amine position” value was determined as 28 s. For the same compound, the “Elongation factor of T1 of the trimethyl amine position” value in series [1] (compared to the native choline molecule with protonated trimethyl amine positions) was roughly 8 fold. Further, in series [1] (11.8 T), the “Elongation factor, T1 of C1” value is 6.2 and the “Elongation factor, T1 of C2” value is reported as 6.7.
Regarding `[2H]c1c([2H])c([2H])c2c(C([2H])([2H])[C@]([2H])(N)C(=O)O)c[nH]c2c1[2H]` [[D7]-L-tryptophan, [D7]-L-tryptophan: C6D4C(CD2-CD(NH2)COOH)CH—NH], in series [3] (dissolved in H2O and 15% D2O (54.5 mM), 11.8 T), the “T1 of position 10” value was roughly 13 s.
With `Cl.[2H]C([2H])(N)C([2H])([2H])c1ccc(O)c(O)c1` [[1,1,2,2-D4]-dopamine HCl], in series [2], the “T1 of C1” value came out at 8.7 s; the “T1 of C2” value turned out to be 9.3 s; the “T1 of C3” value was determined as 6.3 s; the “Elongation factor, T1 of C1” value is 7.9. Also, in series [2], the “Elongation factor, T1 of C2” value is 9.3 and the “Elongation factor, T1 of C3” value is reported as 1.0.
Turning to `[2H]C([2H])(NC(=N)N)C([2H])([2H])C([2H])([2H])[C@]([2H])(N)C(=O)O` [[2,3,3,4,4,5,5-D7]-arginine, [2,3,3,4,4,5,5-D7]-arginine: NH2C(NH)NHCD2CD2CD2CD(NH2)CO2H], the “T1 of carbons at positions 2, 3, 4, and 5” value in series [3] was roughly 8 s.
`[2H]C([2H])(O)[13C]([2H])([2H])[N+](C)(C)C` [[1,1,2,2-D4,2-^13C]-choline]: in series [4] (9.4 T, 37 °C), the “Thermal equilibrium T1” value came to 41 s. The “Liquid state T1 of position 2” value came to 56 ± 4 s in series [4] (about 40 to about 50 °C) and 48 ± 2 s in series [4] (approx. 37 °C). Moreover, in series [4] (enhanced sample in the fringe field of an unshielded 14.1 T magnet, n=2, estimated), the “Low field T1” value is on record as greater than 40 s.
In the case of `C[N+](C)(C)CCO.[Cl-]` [choline Cl^−], in series [1] (setting [5]), the “T1 of C1” value came to 5.2 s and the “T1 of C2” value worked out at 4.9 s.
